In patent US20250172566A1, “SACCHARIDE SENSING SYSTEMS” (CARBOMETRICS LIMITED, priority 2022, published 2025):

Assay: Fluorescent solution phase glucose responsive assay (pH 7.4, 298 K)
Settings: Ex 470 nm
Procedure: Fluorescence spectroscopy was performed on either a HORIBA Duetta or BMG Labtech CLARIOstar plus plate reader. Emission spectra were obtained using the appropriate excitation wavelength and at a temperature of either 298 or 310 K and at pH 7.4 unless otherwise stated. Data collection and analysis were performed using EzSpec software by HORIBA or CLARIOstar MARS software by BMG Labtech. Further analysis and processing were performed in Microsoft Excel.
A solution of GBM and FIM at the required concentrations were created in the appropriate media. The emission spectrum of the assay was then acquired by exciting at the designated excitation wavelength to obtain the baseline emission intensity for the assay. Aliquots of 2 M D-glucose (in the same media) were then added to give the required final glucose concentrations (e.g. 15 μL of 2 M D-glucose in 3 mL gives a final D-glucose concentration of 10 mM) and the assay allowed to reach equilibration. The emission spectra were collected after each addition of D-glucose and compared to the original baseline emission, monitoring at the typical emission maximum (Emmax), and the percentage increase or decrease recorded. Emission spectra acquired on either a Horiba Duetta fluorometer or Clariostar plus plate reader.
The glucose responsive fluorescence emission for different combinations of glucose binding molecules (GBM) and fluorescent inhibitor molecules (FIM) at various concentrations and in various media was tested as described above. All results obtained at pH 7.4 and 298 K unless otherwise stated.
All results obtained at pH 7.4 and 298 K unless otherwise stated.
Table 4 provides the composition of the assay media used as the code assigned to each media as used in Tables 1 to 3.

Q: With `CC(C)(C)OC(=O)N[C@@H](Cc1cn(CCCC[C@@H](C(=O)Nc2ccc(CCO[C@@H]3O[C@H](CO)[C@@H](O)[C@H](O)[C@H]3O)cc2)[N+](C)(C)C)nn1)C(=O)NCCOCCOCCOCCn1cc(CNC(=O)c2ccc3c(c2)C(=O)OC32c3ccc(O)cc3Oc3cc(O)ccc32)nn1` [FIM32] as the compound, how does the “Change in Emmax for FIM at a particular D-glucose concentration” value (“Change in Emmax for FIM” below) (5 mM D-glucose, GBM15 10 μM, FIM 1 μM, medium B, Emmax 520 nm) read?
A: 170%

Q: What about the “Change in Emmax for FIM” value (5 mM D-glucose, GBM15 50 μM, FIM 0.5 μM, medium B, Emmax 520 nm) of the same compound?
A: 140%

Q: And the “Change in Emmax for FIM” value (5 mM D-glucose, GBM15 50 μM, FIM 5 μM, medium B, Emmax 520 nm)?
A: 110%

Q: And the “Change in Emmax for FIM” value (5 mM D-glucose, GBM15 50 μM, FIM 10 μM, medium B, Emmax 520 nm)?
A: 110%

Q: And the “Change in Emmax for FIM” value (5 mM D-glucose, GBM15 100 μM, FIM 1 μM, medium B, Emmax 520 nm)?
A: 95%

Q: What about the “Change in Emmax for FIM” value (5 mM D-glucose, GBM15 200 μM, FIM 2 μM, medium B, Emmax 520 nm) of the same compound?
A: 85%

Q: And the “Change in Emmax for FIM” value (5 mM D-glucose, GBM15 200 μM, FIM 5 μM, medium B, Emmax 520 nm)?
A: 50%

Q: And the “Change in Emmax for FIM” value (5 mM D-glucose, GBM15 200 μM, FIM 10 μM, medium B, Emmax 520 nm)?
A: 50%

Q: What about the “Change in Emmax for FIM” value (10 mM D-glucose, GBM15 10 μM, FIM 1 μM, medium B, Emmax 520 nm) of the same compound?
A: 190%

Q: And the “Change in Emmax for FIM” value (10 mM D-glucose, GBM15 50 μM, FIM 0.5 μM, medium B, Emmax 520 nm)?
A: 195%

Q: And the “Change in Emmax for FIM” value (10 mM D-glucose, GBM15 50 μM, FIM 5 μM, medium B, Emmax 520 nm)?
A: 155%

Q: What about the “Change in Emmax for FIM” value (10 mM D-glucose, GBM15 50 μM, FIM 10 μM, medium B, Emmax 520 nm) of the same compound?
A: 145%

Q: And the “Change in Emmax for FIM” value (10 mM D-glucose, GBM15 100 μM, FIM 1 μM, medium B, Emmax 520 nm)?
A: 135%

Q: What about the “Change in Emmax for FIM” value (10 mM D-glucose, GBM15 200 μM, FIM 2 μM, medium B, Emmax 520 nm) of the same compound?
A: 115%

Q: And the “Change in Emmax for FIM” value (10 mM D-glucose, GBM15 200 μM, FIM 5 μM, medium B, Emmax 520 nm)?
A: 85%

Q: What about the “Change in Emmax for FIM” value (10 mM D-glucose, GBM15 200 μM, FIM 10 μM, medium B, Emmax 520 nm) of the same compound?
A: 85%

Q: What about the “Change in Emmax for FIM” value (20 mM D-glucose, GBM15 10 μM, FIM 1 μM, medium B, Emmax 520 nm) of the same compound?
A: 200%

Q: And the “Change in Emmax for FIM” value (20 mM D-glucose, GBM15 50 μM, FIM 0.5 μM, medium B, Emmax 520 nm)?
A: 240%

Q: And the “Change in Emmax for FIM” value (20 mM D-glucose, GBM15 50 μM, FIM 5 μM, medium B, Emmax 520 nm)?
A: 185%

Q: What about the “Change in Emmax for FIM” value (20 mM D-glucose, GBM15 50 μM, FIM 10 μM, medium B, Emmax 520 nm) of the same compound?
A: 190%

Q: What about the “Change in Emmax for FIM” value (20 mM D-glucose, GBM15 100 μM, FIM 1 μM, medium B, Emmax 520 nm) of the same compound?
A: 160%

Q: What about the “Change in Emmax for FIM” value (20 mM D-glucose, GBM15 200 μM, FIM 2 μM, medium B, Emmax 520 nm) of the same compound?
A: 145%

Q: What about the “Change in Emmax for FIM” value (20 mM D-glucose, GBM15 200 μM, FIM 5 μM, medium B, Emmax 520 nm) of the same compound?
A: 125%

Q: What about the “Change in Emmax for FIM” value (20 mM D-glucose, GBM15 200 μM, FIM 10 μM, medium B, Emmax 520 nm) of the same compound?
A: 115%

Q: What about the “Change in Emmax for FIM” value (40 mM D-glucose, GBM15 10 μM, FIM 1 μM, medium B, Emmax 520 nm) of the same compound?
A: 220%

Q: And the “Change in Emmax for FIM” value (40 mM D-glucose, GBM15 50 μM, FIM 0.5 μM, medium B, Emmax 520 nm)?
A: 265%

Q: What about the “Change in Emmax for FIM” value (40 mM D-glucose, GBM15 50 μM, FIM 5 μM, medium B, Emmax 520 nm) of the same compound?
A: 205%

Q: And the “Change in Emmax for FIM” value (40 mM D-glucose, GBM15 100 μM, FIM 1 μM, medium B, Emmax 520 nm)?
A: 220%

Q: And the “Change in Emmax for FIM” value (40 mM D-glucose, GBM15 200 μM, FIM 2 μM, medium B, Emmax 520 nm)?
A: 200%

Q: And the “Change in Emmax for FIM” value (40 mM D-glucose, GBM15 200 μM, FIM 5 μM, medium B, Emmax 520 nm)?
A: 175%

Q: And the “Change in Emmax for FIM” value (40 mM D-glucose, GBM15 200 μM, FIM 10 μM, medium B, Emmax 520 nm)?
A: 130%

Q: And the “Change in Emmax for FIM” value (60 mM D-glucose, GBM15 50 μM, FIM 0.5 μM, medium B, Emmax 520 nm)?
A: 310%

Q: And the “Change in Emmax for FIM” value (60 mM D-glucose, GBM15 50 μM, FIM 5 μM, medium B, Emmax 520 nm)?
A: 225%

Q: And the “Change in Emmax for FIM” value (60 mM D-glucose, GBM15 200 μM, FIM 2 μM, medium B, Emmax 520 nm)?
A: 215%

Q: What about the “Change in Emmax for FIM” value (60 mM D-glucose, GBM15 200 μM, FIM 5 μM, medium B, Emmax 520 nm) of the same compound?
A: 190%

Q: What about the “Change in Emmax for FIM” value (60 mM D-glucose, GBM15 200 μM, FIM 10 μM, medium B, Emmax 520 nm) of the same compound?
A: 160%

Q: What about the “Change in Emmax for FIM” value (80 mM D-glucose, GBM15 50 μM, FIM 5 μM, medium B, Emmax 520 nm) of the same compound?
A: 235%

Q: What about the “Change in Emmax for FIM” value (80 mM D-glucose, GBM15 200 μM, FIM 5 μM, medium B, Emmax 520 nm) of the same compound?
A: 200%

Q: And the “Change in Emmax for FIM” value (80 mM D-glucose, GBM15 200 μM, FIM 10 μM, medium B, Emmax 520 nm)?
A: 170%

Q: For `Cc1ccc2n1[B-](F)(F)[N+]1=C(/C=C/c3ccc(C(=O)O)cc3)C=CC1=C2c1ccccc1OCc1cn(CCOCCOCCOCCO[C@@H]2O[C@H](CO)[C@@H](O)[C@H](O)[C@H]2O)nn1` [FIM31], which “Change in Emmax for FIM” value (20 mM D-glucose, GBM22 5 μM, FIM 1 μM, medium A, Emmax 590 nm) is on record?
A: 90%

Q: What does the source list for `C[N+](C)(C)[C@@H](CCCCNC(=O)[C@@H](N)CCCCn1cc(CNC(=O)c2ccc3c(c2)C2(OC3=O)c3ccc(N)c(S(=O)(=O)O)c3Oc3c2ccc(N)c3S(=O)(=O)O)nn1)C(=O)Nc1ccc(CCO[C@@H]2O[C@H](CO)[C@@H](O)[C@H](O)[C@H]2O)cc1` [FIM39]?
A: Change in Emmax for FIM at a particular D-glucose concentration (5 mM D-glucose, GBM7 30 μM, FIM 1 μM, medium B, Emmax 520 nm): 95%; Change in Emmax for FIM at a particular D-glucose concentration (10 mM D-glucose, GBM7 30 μM, FIM 1 μM, medium B, Emmax 520 nm): 115%; Change in Emmax for FIM at a particular D-glucose concentration (20 mM D-glucose, GBM7 30 μM, FIM 1 μM, medium B, Emmax 520 nm): 120%

Q: For `O=C(CNC(=O)[C@H](Cc1cn(CCOCCOCCOCCOc2ccc(CCO[C@@H]3O[C@H](CO)[C@@H](O)[C@H](O)[C@H]3O)cc2)nn1)NC(=O)CCCC[C@@H]1SC[C@@H]2NCN[C@@H]21)Nc1ccc2c(c1)C(=O)OC21c2ccc(O)cc2Oc2cc(O)ccc21` [FIM35], which “Change in Emmax for FIM” value (20 mM D-glucose, GBM29 50 μM, FIM 1 μM, medium B, Emmax 520 nm) is on record?
A: 60%

Q: And the “Change in Emmax for FIM” value (20 mM D-glucose, GBM29 50 μM, FIM 1 μM, medium B, Emmax 520 nm, separate GBM and FIM components mixed with 0.25 molar equivalents of streptavidin tetramer prior to formulation of assay)?
A: 40%
